# Measured values reported in PubChem BioAssay AID256 (DTP/NCI, 2004).
# Where “and” joins values, the source holds several entries; their conditions need not be identical. Equal entries are not always repeated. Inconclusive results and toxic doses are left out.
# Test system: CD2F1 mice, L1210 leukemia ip, survival T/C
# Test: NCI In Vivo Anticancer Drug Screen. Data for tumor model L1210 Leukemia (intraperitoneal) in CD2F1 (CDF1) mice
# Conditions: higher = longer survival
# Procedure, shortened: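 Ratio T/C, where T is the treated-group value and C the vehicle-dosed control value, from mice implanted with a transplantable tumor.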
# [1] = endpoint: mean survival time, dose: 100.0 mg/kg/injection, schedule: Q04DX003 (ip), vehicle: saline with Tween-80
# [2] = endpoint: mean survival time, dose: 400.0 mg/kg/injection, schedule: Q04DX003 (ip), vehicle: saline with Tween-80
# [3] = endpoint: mean survival time, dose: 100.0 mg/kg/injection, schedule: Q01DX009 (ip), vehicle: other
# [4] = endpoint: mean survival time, dose: 100.0 mg/kg/injection, schedule: Q01DX009 (ip), vehicle: saline with Tween-80
# [5] = endpoint: mean survival time, dose: 200.0 mg/kg/injection, schedule: Q01DX009 (ip), vehicle: saline with Tween-80
# [6] = endpoint: mean survival time, dose: 400.0 mg/kg/injection, schedule: Q01DX009 (ip), vehicle: saline with Tween-80
# [7] = endpoint: mean survival time, dose: 100.0 mg/kg/injection, schedule: Q04DX002 (ip), vehicle: saline with Tween-80
# [8] = endpoint: mean survival time, dose: 200.0 mg/kg/injection, schedule: Q04DX002 (ip), vehicle: saline with Tween-80
# [9] = endpoint: mean survival time, dose: 400.0 mg/kg/injection, schedule: Q04DX002 (ip), vehicle: saline with Tween-80
# [10] = endpoint: mean survival time, dose: 100.0 mg/kg/injection, schedule: Q01DX001 (ip), vehicle: saline with Tween-80
# [11] = endpoint: mean survival time, dose: 200.0 mg/kg/injection, schedule: Q01DX001 (ip), vehicle: saline with Tween-80
# [12] = endpoint: mean survival time, dose: 400.0 mg/kg/injection, schedule: Q01DX001 (ip), vehicle: saline with Tween-80
# [13] = endpoint: mean survival time, dose: 25.0 mg/kg/injection, schedule: Q01DX009 (ip), vehicle: saline with Tween-80
# [14] = endpoint: mean survival time, dose: 50.0 mg/kg/injection, schedule: Q01DX009 (ip), vehicle: saline with Tween-80
# [15] = endpoint: mean survival time, dose: 200.0 mg/kg/injection, schedule: Q04DX003 (ip), vehicle: saline with Tween-80
structure (smiles),measurement,setting,value
CC(=O)Nc1ccc2ccccc2c1-c1c(NC(C)=O)ccc2ccccc12,T/C,[1],87 % of control
same,T/C,[2],95 % of control
COC1NC(=O)NC(=O)C1=[N+]=[N-] (configuration not stated),T/C,"endpoint: mean survival time, dose: 2.5 mg/kg/injection, schedule: Q01DX009 (ip), vehicle: saline with Tween-80",113 % of control
CCC12CCCN3CCc4c(n(c5ccccc45)C(O)(C(=O)OC)C1)C32 (configuration not stated),T/C,"endpoint: mean survival time, dose: 5.0 mg/kg/injection, schedule: Q01DX001 (ip), vehicle: saline",108 % of control
same,T/C,"endpoint: mean survival time, dose: 10.0 mg/kg/injection, schedule: Q01DX001 (ip), vehicle: saline",101 % of control
same,T/C,"endpoint: mean survival time, dose: 20.0 mg/kg/injection, schedule: Q01DX001 (ip), vehicle: saline",102 % of control
same,T/C,"endpoint: mean survival time, dose: 40.0 mg/kg/injection, schedule: Q01DX001 (ip), vehicle: saline",101 % of control
CCC1(O)C(=O)OCc2c1cc1n(c2=O)Cc2cc3cc(C)ccc3nc2-1 (configuration not stated),T/C,"endpoint: median survival time, dose: 10.0 mg/kg/injection, schedule: Q04DX002 (ip), vehicle: saline with Tween-80",151 % of control and 207 % of control
same,T/C,"endpoint: median survival time, dose: 20.0 mg/kg/injection, schedule: Q04DX002 (ip), vehicle: saline with Tween-80",151 % of control and 192 % of control
same,T/C,"endpoint: median survival time, dose: 40.0 mg/kg/injection, schedule: Q04DX002 (ip), vehicle: saline with Tween-80",162 % of control and 195 % of control
same,T/C,"endpoint: median survival time, dose: 80.0 mg/kg/injection, schedule: Q04DX002 (ip), vehicle: saline with Tween-80",186 % of control
same,T/C,"endpoint: median survival time, dose: 160.0 mg/kg/injection, schedule: Q04DX002 (ip), vehicle: saline with Tween-80",114 % of control
CC(O)(CCc1ccccc1)CC(O)(C(F)(F)F)C(F)(F)F (configuration not stated),T/C,[3],96 % of control
same,T/C,[4],97 % of control
same,T/C,"endpoint: mean survival time, dose: 200.0 mg/kg/injection, schedule: Q01DX009 (ip), vehicle: other",102 % of control
same,T/C,[5],102 % of control
same,T/C,"endpoint: mean survival time, dose: 400.0 mg/kg/injection, schedule: Q01DX009 (ip), vehicle: other",98 % of control
same,T/C,[6],108 % of control
CN1CCC23CC=CCC2C1Cc1ccc([N+](=O)[O-])cc13 (configuration not stated),T/C,"endpoint: mean survival time, dose: 6.25 mg/kg/injection, schedule: Q01DX001 (ip), vehicle: saline with Tween-80",103 % of control
same,T/C,"endpoint: mean survival time, dose: 12.5 mg/kg/injection, schedule: Q01DX001 (ip), vehicle: saline with Tween-80",105 % of control
same,T/C,"endpoint: mean survival time, dose: 25.0 mg/kg/injection, schedule: Q01DX001 (ip), vehicle: saline with Tween-80",105 % of control
CCOC(=O)CC(=O)c1c(C)cc(C)cc1C,T/C,[4],89 % of control
same,T/C,[5],96 % of control
same,T/C,[6],107 % of control
CN(C)/C=N\c1ncnc2c1ncn2C1OC(CO)C2OC(C)(C)OC21 (configuration not stated),T/C,[7],109 % of control
same,T/C,[8],109 % of control
same,T/C,[9],114 % of control
Nc1ccccc1-c1n[nH]c2ccccc12,T/C,"endpoint: mean survival time, dose: 25.0 mg/kg/injection, schedule: Q04DX002 (ip), vehicle: saline with Tween-80",110 % of control
same,T/C,"endpoint: mean survival time, dose: 50.0 mg/kg/injection, schedule: Q04DX002 (ip), vehicle: saline with Tween-80",103 % of control
same,T/C,[7],103 % of control
same,T/C,[8],100 % of control
CC12CCC3C4CCC(=O)C(CCC(=O)O)=C4CCC3(CO1)C2 (configuration not stated),T/C,[10],102 % of control
same,T/C,[11],95 % of control
same,T/C,[12],94 % of control
COc1cc(Cl)c(CCBr)cc1OC,T/C,"endpoint: mean survival time, dose: 50.0 mg/kg/injection, schedule: Q01DX009 (ip), vehicle: Klucel (hydroxypropylcellulose) (HPC)",104 % of control
same,T/C,"endpoint: mean survival time, dose: 100.0 mg/kg/injection, schedule: Q01DX009 (ip), vehicle: Klucel (hydroxypropylcellulose) (HPC)",89 % of control
same,T/C,"endpoint: mean survival time, dose: 200.0 mg/kg/injection, schedule: Q01DX009 (ip), vehicle: Klucel (hydroxypropylcellulose) (HPC)",96 % of control
CC(C)CCCC(C)C1CCC2C3CC=C4CC(OCCO)CCC4(C)C3CCC12C (configuration not stated),T/C,"endpoint: mean survival time, dose: 25.0 mg/kg/injection, schedule: Q01DX009 (ip), vehicle: other",104 % of control
same,T/C,"endpoint: mean survival time, dose: 50.0 mg/kg/injection, schedule: Q01DX009 (ip), vehicle: other",101 % of control
same,T/C,[3],87 % of control
CC(NC1=NCCO1)c1cccc2ccccc12 (configuration not stated),T/C,[1],89 % of control
c1ccc2c[n+]3cc4ccccc4cc3cc2c1,T/C,"endpoint: mean survival time, dose: 12.5 mg/kg/injection, schedule: Q04DX003 (ip), vehicle: saline",104 % of control
same,T/C,"endpoint: mean survival time, dose: 25.0 mg/kg/injection, schedule: Q04DX003 (ip), vehicle: saline",97 % of control
S=C(Nc1ccccc1)Nc1ccccn1,T/C,[10],97 % of control
same,T/C,[11],105 % of control
same,T/C,[12],109 % of control
O=C1c2ccccc2C(=O)N1C(=S)N1C(=O)c2ccccc2C1=O,T/C,[7],96 % of control
same,T/C,[8],92 % of control
same,T/C,[9],92 % of control
NP(=O)(Oc1cccc2c(OP(N)(=O)N(CCCl)CCCl)cccc12)N(CCCl)CCCl (configuration not stated),T/C,"endpoint: mean survival time, dose: 31.25 mg/kg/injection, schedule: Q01DX001 (ip), vehicle: distilled water + Tween-80",95 % of control
same,T/C,"endpoint: mean survival time, dose: 62.5 mg/kg/injection, schedule: Q01DX001 (ip), vehicle: distilled water + Tween-80",95 % of control
same,T/C,"endpoint: mean survival time, dose: 125.0 mg/kg/injection, schedule: Q01DX001 (ip), vehicle: distilled water + Tween-80",95 % of control
same,T/C,"endpoint: mean survival time, dose: 250.0 mg/kg/injection, schedule: Q01DX001 (ip), vehicle: distilled water + Tween-80",97 % of control
same,T/C,"endpoint: mean survival time, dose: 500.0 mg/kg/injection, schedule: Q01DX001 (ip), vehicle: distilled water + Tween-80",95 % of control
COc1ccc(S(=O)(=O)N=N/C=C2\C=CC=CN2O)cc1OC,T/C,"endpoint: median survival time, dose: 3.12 mg/kg/injection, schedule: Q01DX009 (ip), vehicle: saline with Tween-80",101 % of control
same,T/C,"endpoint: median survival time, dose: 6.25 mg/kg/injection, schedule: Q01DX009 (ip), vehicle: saline with Tween-80",107 % of control
same,T/C,"endpoint: median survival time, dose: 12.5 mg/kg/injection, schedule: Q01DX009 (ip), vehicle: saline with Tween-80",104 % of control
same,T/C,"endpoint: median survival time, dose: 18.0 mg/kg/injection, schedule: Q01DX009 (ip), vehicle: saline with Tween-80",103 % of control
same,T/C,"endpoint: median survival time, dose: 37.0 mg/kg/injection, schedule: Q01DX009 (ip), vehicle: saline with Tween-80",105 % of control
same,T/C,"endpoint: median survival time, dose: 100.0 mg/kg/injection, schedule: Q01DX009 (ip), vehicle: saline with Tween-80",113 % of control
same,T/C,"endpoint: median survival time, dose: 150.0 mg/kg/injection, schedule: Q01DX009 (ip), vehicle: saline with Tween-80",98 % of control
same,T/C,"endpoint: median survival time, dose: 200.0 mg/kg/injection, schedule: Q01DX009 (ip), vehicle: saline with Tween-80",95 % of control
BrC1(Br)C2CC/C=C/CCCCC21 (configuration not stated),T/C,"endpoint: mean survival time, dose: 100.0 mg/kg/injection, schedule: Q04DX003 (ip), vehicle: saline sonified",97 % of control
same,T/C,"endpoint: mean survival time, dose: 200.0 mg/kg/injection, schedule: Q04DX003 (ip), vehicle: saline sonified",94 % of control
same,T/C,"endpoint: mean survival time, dose: 400.0 mg/kg/injection, schedule: Q04DX003 (ip), vehicle: saline sonified",97 % of control
CC(=O)NCC(C)C,T/C,"endpoint: mean survival time, dose: 100.0 mg/kg/injection, schedule: Q01DX001 (ip), vehicle: saline",98 % of control
same,T/C,"endpoint: mean survival time, dose: 200.0 mg/kg/injection, schedule: Q01DX001 (ip), vehicle: saline",97 % of control
same,T/C,"endpoint: mean survival time, dose: 400.0 mg/kg/injection, schedule: Q01DX001 (ip), vehicle: saline",104 % of control
COc1ccc(-c2c(O)c3ccc(OC)cc3oc2=O)cc1,T/C,[13],96 % of control
same,T/C,[14],108 % of control
same,T/C,[4],108 % of control
O=C1C=C(N2CCCC2)c2ccccc21,T/C,"endpoint: mean survival time, dose: 100.0 mg/kg/injection, schedule: Q04DX003 (ip), vehicle: Klucel (hydroxypropylcellulose) (HPC)",106 % of control
same,T/C,"endpoint: mean survival time, dose: 200.0 mg/kg/injection, schedule: Q04DX003 (ip), vehicle: Klucel (hydroxypropylcellulose) (HPC)",97 % of control
same,T/C,"endpoint: mean survival time, dose: 400.0 mg/kg/injection, schedule: Q04DX003 (ip), vehicle: Klucel (hydroxypropylcellulose) (HPC)",95 % of control
CCCc1nc(N)[nH]c(=O)c1CCCCCCCCCCCc1ccccc1,T/C,"endpoint: mean survival time, dose: 75.0 mg/kg/injection, schedule: Q01DX001 (ip), vehicle: saline with Tween-80",98 % of control
same,T/C,"endpoint: mean survival time, dose: 150.0 mg/kg/injection, schedule: Q01DX001 (ip), vehicle: saline with Tween-80",97 % of control
same,T/C,"endpoint: mean survival time, dose: 300.0 mg/kg/injection, schedule: Q01DX001 (ip), vehicle: saline with Tween-80",95 % of control
COC(=O)C1C(C(=O)OC)C2C3C4C1C1C2C1C43 (configuration not stated),T/C,[1],102 % of control
same,T/C,[15],102 % of control
same,T/C,[2],104 % of control
C[P+]1(c2ccccc2)c2ccccc2Oc2ccccc21,T/C,"endpoint: mean survival time, dose: 75.0 mg/kg/injection, schedule: Q01DX001 (ip), vehicle: saline",102 % of control
CN(C)S(=O)(=O)c1cc(Cl)ccc1NN,T/C,[1],98 % of control
same,T/C,[15],104 % of control
same,T/C,[2],104 % of control
CCOC(=O)N(OCc1ccccc1)P(=O)(N1CC1(C)C)N1CC1(C)C (configuration not stated),T/C,[13],95 % of control
same,T/C,[14],93 % of control
same,T/C,[4],98 % of control
